{"source": "patent US20060172357A1", "about": "“Detecting human antibodies in non-human serum” (Genentech, priority 2004, published 2006)", "key": {"[1]": {"target": "rhuMAb2H7", "settings": "apparent affinity; Method 2; peptide immobilized on streptavidin chip, 2H7-IgG injected, bivalent analyte model", "procedure": "In the second method, affinities were measured with a Biacore 3000 on a strepavidin chip using either immobilized CD20-35 mer, bis(biotin)) at 685 RU, CD20(51-mer, mono(biotin)) at 1637 RU, or CD20(51-mer, bis(biotin)) at 1037 RU.\nPBS/Tween/azide was used as the running buffer, at 20 μL/minute, with 20 mM HCl for regeneration. 2H7-IgG was injected, and the resulting data was fit to a bivalent analyte model."}, "[2]": {"target": "rhuMAb2H7", "settings": "apparent equilibrium dissociation constant; Method 1; peptide immobilized on streptavidin chip, 2H7-IgG injected", "procedure": "In the first method, affinities were measured with a Biacore 3000 on a strepavidin chip using either immobilized mono-biotinylated CD20-35 mer at 95 RU, or mono-biotinylated CD20-51 mer at 94 RU, where RU is a relative surface plasmon resonance unit based upon an arbitrary scale. The running buffer was HBS-EP flowing at 50 μL/min with 25 μl of 10 mM Glycine-HCl, and a pH of 2.5 for the regeneration. 2H7-IgG was injected, and the resulting data was fit to a 1:1 binding model with Biaevaluation 3.0 software (Biacore AB, Uppsala, Sweden) to get the apparent equilibrium dissociation constants."}, "[3]": {"target": "T1, CD20 full Length (Homo sapiens, UniProt P11836)", "T1 construct": "MKHQHQQ leader (N); octa-His (C); made in house; host or cells: E. coli", "T1 sequence (P11836 1-297)": "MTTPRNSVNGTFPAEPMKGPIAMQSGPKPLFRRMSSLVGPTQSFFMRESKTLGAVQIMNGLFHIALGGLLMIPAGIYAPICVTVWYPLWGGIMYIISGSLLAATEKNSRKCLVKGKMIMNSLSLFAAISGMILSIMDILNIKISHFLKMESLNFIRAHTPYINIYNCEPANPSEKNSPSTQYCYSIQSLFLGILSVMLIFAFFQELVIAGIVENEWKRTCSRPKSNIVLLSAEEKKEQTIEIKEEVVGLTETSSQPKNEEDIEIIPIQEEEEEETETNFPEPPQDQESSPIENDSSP", "experiment": "ELISA using full-length CD20 molecule as the capture reagent", "format": "binding", "settings": "N 8", "procedure": "[…] The plate was then washed for 3 times with the washing buffer (PBS with 0.05% polysorbate-20). Blocking buffer (200 μl) was added and the plate was sealed and incubated at room temperature for 2 hours with a gentle agitation. […] After incubating at room temperature for another hour with a gentle agitation, the plate was washed again with the washing buffer for six times and blotted dry. A volume of 100 μl of the detection agent diluted with the detection agent diluent was added and the plate was sealed and incubated at room temperature for one hour with a gentle agitation. The plate was then washed for another six times and blotted dry before the addition of 100 μl of an equal volume of TMB and H2O2. After incubating at room temperature for 15 minutes without agitation, the reaction was stopped by adding another 100 μl of 1 M H3PO4. The absorbance at 450 nm subtracted of that at 650 nm was read from the Spectra Max250 plate reader (Molecular Devices Corporation, Sunnyvale, Calif.), and the data were processed using SoftmaxPro (Molecular Devices Corporation, Sunnyvale, Calif.)."}}, "note": "Like-named read-outs stand apart in the source and are kept apart here. The star is where a group is joined. Biotin = O=C1N[C@H]2[C@H](CS[C@H]2CCCCC(=O)*)N1"}
{"substance": "Biotin GKISHFLKMESLNFIRAHTPYINIYNCEPANPSEKNSPSTQYCYSIQSGGK (Biotin)-amide [Bis-CD20-51mer]", "values": [{"measurement": "Kd", "setting": "[1]", "value": 110, "unit": "nM"}]}
{"substance": "Biotin-FIRAHTPYINIYNCEPANPSEKNSPSTQYCYSGGK(Biotin)-NH2 (cysteine pairing not given here) [Bis-CD20-35mer]", "values": [{"measurement": "Kd", "setting": "[1]", "value": 500, "unit": "nM"}]}
{"substance": "Biotin-FIRAHTPYINIYNCEPANPSEKNSPSTQYCYSGGK-NH2 (cysteine pairing not given here) [Mono-CD20-35mer]", "values": [{"measurement": "Kd", "setting": "[2]", "value": 41700, "unit": "nM"}]}
{"substance": "Biotin-GKISHFLKMESLNFIRAHTPYINIYNCEPANPSEKNSPSTQYCYSIQSGGK-NH2 (cysteine pairing not given here) [Mono-CD20-51 mer]", "values": [{"measurement": "Kd", "setting": "[1]", "value": 130, "unit": "nM"}, {"measurement": "Kd", "setting": "[2]", "value": 47, "unit": "nM"}]}
{"substance": "Rituxan: anti-CD20 antibody, generated as disclosed in U.S. Pat. No 5,736,137", "values": [{"measurement": "signal of 247 ng/ml of antibody", "setting": "[3]; capture reagent 1 μg/mL in PBS, detection Goat anti-hu F(ab′)2 HRP", "value": 0.065, "unit": "O.D.450 nm"}, {"measurement": "signal of 247 ng/ml of antibody", "setting": "[3]; capture reagent 1 μg/mL in PBS, detection Sheep anti-hu IgG HRP (Monkey Adsorbed)", "value": 0.012, "unit": "O.D.450 nm"}, {"measurement": "signal of 247 ng/ml of antibody", "setting": "[3]; capture reagent 5 μg/mL in PBS, detection Goat anti-hu F(ab′)2 HRP", "value": 0.166, "unit": "O.D.450 nm"}, {"measurement": "signal of 247 ng/ml of antibody", "setting": "[3]; capture reagent 5 μg/mL in PBS, detection Sheep anti-hu IgG HRP (Monkey Adsorbed)", "value": 0.023, "unit": "O.D.450 nm"}]}
